The text below walks through data of the COVID Moonshot data (paper PMC11187573), “Identification of SARS-CoV-2 Mpro inhibitors through deep reinforcement learning for de novo drug design and computational chemistry approaches” (RSC Medicinal Chemistry, 2024).

The target of the assay is SARS-CoV-2 Main Protease (SARS-CoV-2) (UniProt P0DTD1).

Description: Compounds were seeded into assay-ready plates (Greiner 384 low volume, cat 784900) using an Echo 555 acoustic dispenser, and DMSO was back-filled for a uniform concentration in assay plates (DMSO concentration maximum 1%) Screening assays were performed in duplicate at 20µM and 50µM. […] Dose response assays were performed in 12 point dilutions of 2-fold, typically beginning at 100µM. […] Reagents for Mpro assay were dispensed into the assay plate in 10µl volumes for a final volume of 20µL.
Mpro was pre-incubated for 15 minutes at room temperature with compound before addition of substrate and a further 30 minute incubation. Protease reaction was measured in a BMG Pherastar FS with a 480/520 ex/em filter set. Raw data was mapped and normalized to high (Protease with DMSO) and low (No Protease) controls using Genedata Screener software.

By inhibition is commonly meant the relative decrease from the control value, in per cent. On to `Cn1cc(NC(=O)NCCCN2CCc3ccccc3C2)c2ccccc2c1=O`, for which the inhibition reads like this: (20.0 µM) -2.25%; (50.0 µM) 1.39%.
In the case of `COc1ccc(OC)c(CCNC(=O)Nc2cn(CC(C)C)c(=O)c3ccccc23)c1`, the inhibition was 1.12% (20.0 µM) and 2.5% (50.0 µM).
Consider `C=CC(=O)N(c1ccc(CCC#N)cc1)C(C(=O)NC(C)(C)C)c1cccnc1` (stereo not drawn), for which the inhibition is, setting by setting: (20.0 µM) 1.48%; (50.0 µM) 3.3%.
The term IC50 denotes the concentration that inhibits the measured activity by half. The compound `CC(NC(=O)Cc1ccc(-n2cnnn2)cc1)(C(=O)Nc1cncc2ccccc12)c1ccc(Cl)c(Cl)c1` (stereo not drawn) gave an IC50 of 4640 nM.
As to `O=C(Cc1cc(Cl)cc(NCc2ccc(Br)cc2)c1)Nc1cncc2ccccc12`, the IC50 came to 1430 nM.
Take `Cn1nc(C(=O)NC(C)(C(=O)Nc2cncc3ccccc23)c2ccc(Cl)c(Cl)c2)cc1C#N` (stereo not drawn): the 50% inhibitory concentration (IC50) was found to be 10300 nM.
`Cn1cc(NC(=O)NCCc2ccc(Cl)cc2)c2ccccc2c1=O`: the inhibition by setting is: (20.0 µM) -6.47%; (50.0 µM) -3.22%.
Compound `O=C(Cc1cc(Cl)cc(Nc2ccc(C(F)(F)F)cn2)c1)Nc1cncc2ccccc12` returned a half-maximal inhibitory concentration (IC50) of 1220 nM.
Turning to `COc1ccc(NC(=O)c2ccc(C(=N)N(C)C)cc2)c(C(=O)Nc2ccc(Cl)cn2)c1`, the inhibition reads like this: (20.0 µM) -17.3%; (50.0 µM) -3.35%.
For `Cc1noc(C)c1CCNC(=O)Nc1cn(CC(C)C)c(=O)c2ccccc12`, the inhibition is, setting by setting: (20.0 µM) 39%; (50.0 µM) 94.5%.
As for `Cc1ccncc1CC(=O)Nc1cccc2c1CNCC2`, the inhibition (20.0 µM) was -1.08% and the inhibition (50.0 µM) was 2.76%.
With `Cc1ccc(NC(=O)Nc2cn(CC(C)C)c(=O)c3ccccc23)c(Br)c1`, the inhibition was 8.16% (20.0 µM) and 9.66% (50.0 µM).
Take `CC(NC(=O)CN)(C(=O)Nc1cncc2ccccc12)c1ccc(Cl)c(Cl)c1` (stereo not drawn): the IC50 was 3380 nM.
The compound `Cc1nc2n(n1)CC(C(=O)NC(C)(C(=O)Nc1cncc3ccccc13)c1ccc(Cl)c(Cl)c1)CC2` (stereo not drawn) registered an IC50 of 4820 nM.
Regarding `Cc1[nH]c2ncnc(NC(=O)c3cc4ccccc4c(=O)o3)c2c1C`, the inhibition (20.0 µM) is -7.32% and the inhibition (50.0 µM) was -4.98%.
Take `CC(C)Cn1cc(NC(=O)NCc2ccc3c(c2)OCO3)c2ccccc2c1=O`: the inhibition runs as follows: (20.0 µM) 15.3%; (50.0 µM) 11.2%.
As for `CC(C)Cn1cc(NC(=O)NC2CCCCCC2)c2ccccc2c1=O`, the inhibition (20.0 µM) was found to be 4.79% and the inhibition (50.0 µM) worked out at 2.3%.
Turning to `CC(C)CCC(=O)C[C@H]1c2ccccc2C(=O)N1c1ccc2ccc(Cl)nc2n1` (stereo in doubt), the inhibition by setting is: (20.0 µM) 4.26%; (50.0 µM) -0.676%.
For `COc1cc(OC)nc(O[C@H](C(=O)O)C(OC)(c2ccccc2)c2ccccc2)n1` (stereo in doubt), the inhibition (20.0 µM) was -28.4% and the inhibition (50.0 µM) is 2.42%.
Turning to `CC(C)Cn1cc(NC(=O)N2CCCN(Cc3ccccc3F)C2)c2ccccc2c1=O`, the inhibition runs as follows: (20.0 µM) -1.37%; (50.0 µM) -3.78%.
As for `O=C1C(Nc2ncnc3[nH]cnc23)CCN1Cc1ccccc1` (stereo not drawn), the inhibition was -6.26% (20.0 µM) and -5.36% (50.0 µM).
In the case of `CC(C)Cn1cc(NC(=O)N2CCC(c3ccccc3)C2)c2ccccc2c1=O` (stereo not drawn), the inhibition by setting is: (20.0 µM) -2.21%; (50.0 µM) 0.973%.
In the case of `CC(CCc1ccco1)NC(=O)Nc1cn(C)c(=O)c2ccccc12` (stereo not drawn), the inhibition was found to be 32.6% (20.0 µM) and 67.9% (50.0 µM).
On to `O=C(O)C12CC(CNCc3ccc4c(c3)OCC4)(C1)OC2c1ccccc1` (stereo not drawn), for which the inhibition is -3.12% (20.0 µM) and -4.27% (50.0 µM).
`COc1cccc2[nH]c(=O)cc(C(=O)NCCOc3ccccc3OCC3CC3)c12` returned a half-maximal inhibitory concentration (IC50) of 1920 nM.
In the case of `C[C@@H](Cn1ccc(-c2ccc(C#N)c(Cl)c2)n1)NC(=O)c1cc([C@@H](C)O)[nH]n1` (stereo in doubt), the inhibition was 3.16% (20.0 µM) and -11.9% (50.0 µM).
In the same order, the values of `CCc1ccccc1N(CC)C(=O)Nc1cn(C)c(=O)c2ccccc12` are -3.06% and 22.3%.
`O=C(Nc1cncc2ccccc12)[C@@H]1COc2ccc(Cl)cc21` (stereo in doubt): the IC50 is 555 nM.
For `COC[C@]1(C(=O)Nc2cncc3ccccc23)CCOc2cc(Cl)c(Cl)cc21` (stereo in doubt), the half-maximal inhibitory concentration (IC50) was 3220 nM.
Take `CC(C)Cn1cc(NC(=O)NCCCN2CCCC2=O)c2ccccc2c1=O`: the inhibition is, setting by setting: (20.0 µM) -2.54%; (50.0 µM) 3.77%.
Turning to `CC(C)Cn1cc(NC(=O)NCCN2CCOCC2)c2ccccc2c1=O`, the inhibition (20.0 µM) was -1.08% and the inhibition (50.0 µM) was -1.81%.
In the case of `CCOC(=O)N1CCC(NC(=O)Nc2cn(C)c(=O)c3ccccc23)CC1`, the inhibition is -1.08% (20.0 µM) and 1.92% (50.0 µM).
In the same order, the values of `Cc1ccncc1NC(=O)Cc1ccc2[nH]ncc2c1` are -1.11% and 0.248%.
On to `NC(=O)C[S@@+]([O-])C(c1ccccc1)c1ccccc1` (stereo in doubt), for which the inhibition was -1.76% (20.0 µM) and -1.92% (50.0 µM).
For `CC(C)Cn1cc(NC(=O)NCCc2c[nH]c3ccccc23)c2ccccc2c1=O`, in that order: 1.66% and 6.69%.
On to `Nc1n[nH]c2cc(O)nc(O)c12`, for which the inhibition (20.0 µM) worked out at 6.14% and the inhibition (50.0 µM) was found to be 30.9%.
As for `O=C1CCCCC(C(=O)Nc2ccc(-c3nc[nH]n3)cc2F)N1` (stereo not drawn), the inhibition (20.0 µM) is -4.07% and the inhibition (50.0 µM) was -3.07%.
Take `CC(C)Cn1cc(NC(=O)Nc2cccnc2)c2ccccc2c1=O`: the inhibition was determined as 6.1% (20.0 µM) and 6.63% (50.0 µM).
In the same order, the values of `CC(C)Cn1cc(NC(=O)Nc2nc3ccccc3s2)c2ccccc2c1=O` are 3.79% and 12.2%.
`Cn1cc(NC(=O)N(Cc2ccco2)CC2CCCO2)c2ccccc2c1=O` (stereo not drawn): the inhibition (20.0 µM) stood at 2.81% and the inhibition (50.0 µM) amounted to 0.168%.
For `O=C(OCC(O)CO)c1ccccc1Nc1ccnc2cc(Cl)ccc12` (stereo not drawn), the inhibition by setting is: (20.0 µM) 3.82%; (50.0 µM) -5.01%.
`CC(C)Oc1ccc(N(C(=O)c2cnc[nH]2)C(C(=O)NCCc2cccc(F)c2)c2cccnc2)cc1` (stereo not drawn) registered an IC50 of 712 nM.
For the compound `COC(=O)c1c(C)nn(-c2ccccc2)c1-c1cc(C)on1`, the inhibition by setting is: (20.0 µM) 18.8%; (50.0 µM) 3.16%.
For the compound `O=C1CC(C(=O)Nc2cncc3ccccc23)c2cc(Cl)cc(Cl)c2N1` (stereo not drawn), the IC50 was determined as 3040 nM.
With `O=C(NCC1(C(=O)Nc2cncc3ccccc23)CCOc2ccc(Cl)cc21)C1COCCN1CC(F)(F)F` (stereo not drawn), the IC50 worked out at 21600 nM.
Consider `Cc1cc(Cn2nnc3c(-c4ccco4)nc(N)nc32)ccc1N`, for which the inhibition is 1.89% (20.0 µM) and -1.33% (50.0 µM).
In turn, `O=C(Nc1cncc2ccccc12)[C@@H]1CCNc2cc(Cl)c(Cl)cc21` (stereo in doubt) displayed a half-maximal inhibitory concentration (IC50) of 50 nM.
For `CC(C)(C)c1ccc(N(C(=O)c2cccnc2)C(C(=O)NCCc2cccc(F)c2)c2cccnc2)cc1` (stereo not drawn), the inhibition is -5.55% (20.0 µM) and -6.34% (50.0 µM).
Consider `O=C(N[C@@H](Cc1cc(=O)[nH]c2ccccc12)C(=O)O)c1ccc(Cl)cc1` (stereo in doubt), for which the inhibition reads like this: (20.0 µM) 1.24%; (50.0 µM) -22.3%.
Take `O=C(O)CNC(=O)c1ncc(-c2cccc(Cl)c2)cc1O`: the inhibition was 1.43% (20.0 µM) and -1.75% (50.0 µM).
The compound `CC1Cn2nccc2CN1C(=O)CC1(C(=O)Nc2cncc3ccccc23)CCOc2ccc(Cl)cc21` (stereo not drawn) showed an IC50 of 2110 nM.
